Source: the NIST ThermoML archive (doi:10.1016/j.jct.2015.08.015)

Conditions: Liquid, Ebulliometric method (Recirculating still)

CC=CCC#N [3-pentenenitrile]
Conditions	vapor or sublimation pressure [kPa]
339.24 K	7.588
344.85 K	9.491
353.91 K	13.48
362.45 K	18.32
368.92 K	22.91
375.61 K	28.8
382.01 K	35.37
386.13 K	40.09
388.17 K	42.83
391.42 K	47.08
394.31 K	51.62
398.64 K	57.83
402.51 K	65.49
407.31 K	74.49
409.72 K	80.01
412.88 K	86.78
414.32 K	90.5
417.51 K	97.9
